*1 amine or outer side, *2 acyl side, *3 side chain or, on linkers, in order; H or OH if unused. Where a SMILES comes first, the peptide text is derived from it. Bridges are numbered along the chain shown (N, C = ends). [ ]: non-standard residue; d: D form. ξ: configuration not given here. Ile(4R-OH,5-OH) = C[C@H]([C@H](N)C(=O)O)[C@@H](O)CO; X2 = Nc1ccc2c(CC(N[*:1])C(=O)[*:2])c([*:3])[nH]c2c1; X1 = O=C([C@@H]1CC(O)CN1[*:1])[*:2]; ξC = NC(CS)C(=O)O
Tests used:
[1] = target: DNA-dependent RNA polymerase II (Homo sapiens, UniProt P24928+P30876); settings: background statement, no test in the patent; read-out: KD of the complex with RNA-polymerase II; cited from earlier work
[2] = BrdU cell proliferation assay (cytotoxicity) on HEK293 cells; format: cell-based; settings: human, 96 h incubation, BrdU assay (FIG. 4)
Description: (§1) BrdU Cell Proliferation Assay on HEK293 and HEK293 OATP1B3 cells
(§2) Black 96-well plates with clear bottom with 2.0×10^3 HEK293 and HEK293 OATP1B3 cells/well and 90 μl growth medium per well including 10% FCS and supplements were prepared. Controls: “Blank” was set up with 100 μl medium without cells, “Background” and “100%” were set up with cells in 100 μl medium.
(§3) Incubation for 24 h at 37° C. and 5% CO2.
(§4) Dilution Scheme of HDP 30.2528 and Alpha-Amanitin:
(§5) The stock solutions were diluted 1:1,000 (1:10 and 1:100 dilution) in medium: • 10 μl Amanitin derivative stock solution (1.0×10^−2 M)+90 μl PBS=100 μl 1.0×10^−3 M • 2 μl dilution+198 μl medium=200 μl 1×10^−5 M
Further Dilutions: • A: 200 μl 1.0×10^−5 M • B: 80 μl growth medium+20 μl solution A (1:5 dilution) • C: 80 μl growth medium+20 μl solution B (1:5 dilution) • D: 80 μl growth medium+20 μl solution C (1:5 dilution) • E: 80 μl growth medium+20 μl solution D (1:5 dilution) • F: 80 μl growth medium+20 μl solution E (1:5 dilution) • G: 80 μl growth medium+20 μl solution F (1:5 dilution) • H: 80 μl growth medium+20 μl solution G (1:5 dilution)
10 μl of each solution were added to well triplicates. […]

[3] = BrdU cell proliferation assay (cytotoxicity) on HEK293 OATP1B3 cells; format: cell-based; settings: human, 96 h incubation, BrdU assay (FIG. 4)
Description: as §1
HEK293-OATP1B3 cell culture plates were coated with poly-D-lysine.
Coating with Poly-D-Lysine: • 5 mg poly D-lysine in 50 ml sterile water • 50 μl in each well of a 96 well plate • Incubation for 1 h at RT • Washing of wells twice with 200 μl sterile water • Drying for at least for 2 h (RT)
as §2, §3, §4, §5
Further Dilutions: • A: 200 μl 1.0×10^−5 M • B: 80 μl growth medium+20 μl solution A (1:5 dilution) • C: 80 μl growth medium+20 μl solution B (1:5 dilution) • D: 80 μl growth medium+20 μl solution C (1:5 dilution) • E: 80 μl growth medium+20 μl solution D (1:5 dilution) • F: 80 μl growth medium+20 μl solution E (1:5 dilution) • G: 80 μl growth medium+20 μl solution F (1:5 dilution) • H: 80 μl growth medium+20 μl solution G (1:5 dilution) […]

amanitin
Kd [1]: 3 nM

CC[C@H](C)[C@@H]1NC(=O)CNC(=O)C2Cc3c([nH]c4cc(N)ccc34)SCC(NC(=O)CNC1=O)C(=O)N[C@@H](CC(N)=O)C(=O)N1CC(O)C[C@H]1C(=O)N[C@@H]([C@@H](C)[C@@H](O)CO)C(=O)N2 (stereo partly drawn) [HDP 30.2528, 6′-amino-amaninamide] (cyclo(GIG[ξC]N[X1][Ile(4R-OH,5-OH)][X2]); thioether 4-8)
EC50 at 96 h [2]: 3000 nM
EC50 at 96 h [3]: 30 nM
